Measured values taken from ChEMBL document CHEMBL1158290, “Two fungal lanostane derivatives as phospholipase A2 inhibitors” (J Nat Prod, 1996).

Experiments:
[1] = target: Acidic phospholipase A2 2 (Naja naja) (UniProt P15445); experiment: Inhibition of snake venom phospholipase A2 at 1 mM assessed as oxygen consumption for 3 mins
[2] = target: Acidic phospholipase A2 2 (Naja naja, UniProt P15445); experiment: Inhibition of snake venom phospholipase A2 assessed as oxygen consumption for 3 mins
[3] = target: Acidic phospholipase A2 2 (Naja naja) (UniProt P15445); experiment: Inhibition of snake venom phospholipase A2 at 3.700 mM assessed as oxygen consumption for 3 mins
[4] = target: Acidic phospholipase A2 2 (Naja naja) (UniProt P15445); conditions: 5.800 mM
Description: Inhibition of snake venom phospholipase A2 at 5.800 mM assessed as oxygen consumption for 3 mins

Acidic phospholipase A2 2 (Naja naja), sequence (P15445 whole entry): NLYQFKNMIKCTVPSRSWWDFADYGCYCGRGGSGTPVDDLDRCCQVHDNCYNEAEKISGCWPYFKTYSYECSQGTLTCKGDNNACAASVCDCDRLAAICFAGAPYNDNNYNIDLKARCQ
Acidic phospholipase A2 2, sequence (P15445 whole entry): as above

Row | Compound | inhibition [1] [%] | IC50 [2] [µM] | inhibition [3] [%] | inhibition [4] [%]
1 | C=C(CC[C@@H](C(=O)O)[C@H]1[C@H](O)C[C@@]2(C)C3=CC[C@H]4C(C)(C)[C@@H](O)CC[C@]4(C)C3=CC[C@]12C)C(C)C [DEHYDROTUMULOSIC ACID] | 58.6 | 845 | – | –
2 | C=C(CC[C@@H](C(=O)O)[C@H]1[C@H](O)C[C@@]2(C)C3=C(CC[C@]12C)[C@@]1(C)CC[C@H](OC(C)=O)C(C)(C)[C@@H]1CC3)C(C)C [PACHYMIC ACID] | – | 2900 | 66 | –
3 | CCN(CC)CCCC(C)Nc1c2ccc(Cl)cc2nc2ccc(OC)cc12 (stereo unspecified) [QUINACRINE] | – | 2160 | – | 85.5
